Peptide text beside a SMILES is read from it. * marks the point of attachment. Palmitoyl = CCCCCCCCCCCCCCCC(=O)*

A short description of series [1]: Transmission electron microscopy (cryoTEM / conventional TEM) of PA nanostructures. The series is classed as physicochemical. The conditions noted are these: 1 wt % solution drop-cast and dried onto a TEM grid.
Experiment in series [2]: as above
The series is classed as physicochemical. How it is done: The nanostructure of each PA molecule under physiologically relevant conditions was investigated using electron microscopy. Samples for vitreous ice cryo-transmission electron microscopy (cryoTEM) were prepared from a 0.1-0.5 wt % PA solution dissolved in 150 mM NaCl, 3 mM KCl, or in a 150 mM NaCl, 3 mM KCl, and 5 mM CaCl2 solution, both at a pH of 7.2-7.4. The solutions were then heated to 80° C. in a water bath for 1 hr, and then slowly cooled to room temperature over the course of 8 hr. 10 μL of each solution was pipetted onto a plasma cleaned holey carbon TEM grid (Electron Microscopy Sciences), blotted and plunged into liquid ethane using a FEI Vitrobot Mark IV. Samples were kept at −180° C. and imaged using a JEOL 1230 TEM operating at 100 kV.
Samples for conventional TEM microscopy were prepared from 0.1 wt % PA solution dissolved in ultrapure water and adjusted to a pH of 7.2-7.4 by adding NaOH. The solutions were then heated to 80° C. in a water bath for 1 hr, and then slowly cooled to room temperature over the course of 8 hr, unless noted otherwise. 2 μL of a 0.1 wt % PA solution was pipetted onto a Carbon Formvar grid (Electron Microscopy Sciences) and allowed to dry. The samples were then negatively stained by pipetting 2 uL of a 2 wt % Uranyl acetate solution and allowed to dry. Each sample was imaged using a JEOL 1230 TEM operating at 100 kV. The average diameter of nanofibers was obtained via measuring 40-100 different fibers from solutions and grids prepared throughout multiple days.
The assembly of each PA molecule under physiologically relevant conditions was examined using cryogenic electron microscopy (cryoTEM), as described in Example 4. PAs were dissolved in isotonic salt solutions resembling extracellular fluid (150 mM NaCl, 3 mM KCl, pH 7.4). […] In order to compare molecular simulation diameters with those observed from TEM, molecular simulation values for the other four PA molecules were scaled by the same amount, 87%.

Series [3] concerns P19 embryonal carcinoma cells differentiated into neurons. Nature of the series: Neurite outgrowth of neurons cultured in peptide amphiphile gels. The series is classed as cell-based, murine. The conditions noted are these: gels containing half the concentration (0.1 wt %) of the PA; compared to gels of PA 1.
A short description of another series: Circular dichroism (CD). The series is classed as physicochemical. The procedure: CD was done using a model J-715 Jasco Circular Dichroism Spectrometer. 1 wt % PA solutions were prepared in either a 150 mM NaCl, 3 mM KCl solution or a 150 mM NaCl, 3 mM KCl, and 5 mM CaCl2 solution, both at a pH of 7.2-7.4, as determined via pH paper. The solutions were then heated to 80° C. in a water bath for 1 hr, and then slowly cooled to room temperature over the course of 8 hr. The samples were measured through 0.01 mm quartz plates. Each trace represents the average of three scans. The mean residue ellipticity was corrected for purity of the lyophilized powder from peptide content analysis.
In general terms: Circular dichroism is widely used to follow secondary structure.

The next series is described as follows: Dynamic light scattering. The series is classed as physicochemical.
The test system of series [4] is P19 embryonal carcinoma cells differentiated into neurons. In words: Neurite outgrowth of neurons cultured in peptide amphiphile gels. The series is classed as cell-based, murine. Conditions: compared to gels of PA 1; for promotion of neurite outgrowth (in words): gels containing 0.2 wt % of the PA with 0.8 wt % PA 1. The procedure: P19 embryonal carcinoma cells were cultured in media composed of α-MEM (Gibco), 7.5% newborn calf serum (Lonza), 2.5% fetal bovine serum (Gibco), penicillin (100 units/ml) and streptomycin (100 ug/ml) (Invitrogen). Neuronal differentiation was induced by plating P19 cells in non-treated Petri dishes in media containing 5 uM retinoic acid (Sigma) for 4 days. Neurospheres were collected from the Petri dish and allowed to settle in a centrifuge tube for 10 minutes. Media was removed, then trypsin/EDTA solution was added and the tube was gently agitated for 5 minutes. Cells were dissociated by triturating the neurospheres, then media was added to inactivate the trypsin. Cells were centrifuged and the pellet resuspended in media to a concentration of 25,000 cells/ul. Cells were mixed (1:4) with PA solution. The PA/cell solution was pipetted into coverslip-bottom culture dishes (MatTek) and covered with gelling solution (150 mM NaCl, 3 mM KCl, 25 mM CaCl2) for 1 minute to induce gelation, then rinsed with a 150 mM NaCl, 3 mM KCl solution, then media was added to the dish. Cells were cultured for 2 days.
In order to assay neurite outgrowth, gels were rinsed with PBS, then fixed in 4% paraformaldehyde for 30 minutes at room temperature. Gels were rinsed 3× with PBS followed by addition of 10% normal goat serum blocking solution (Invitrogen) with 0.1% Triton X-100 added. Gels were incubated overnight with primary antibody (rabbit anti-β-III-tubulin IgG, 1/2000, Covance) in blocking solution. Gels were rinsed 3× with PBS, then blocked for 30 minutes with blocking solution. Next, gels were incubated with secondary antibody (Alexa Fluor 488 goat anti-rabbit IgG, 1/100, Invitrogen) in blocking solution for 1 hour. After one PBS rinse, nuclei were stained with a 5 ug/ml solution of Hoecsht 34580 (Invitrogen) in PBS for 15 minutes, then rinsed 4 times. Gels were imaged on a Zeiss LSM 510 META laser scanning confocal microscope, individually acquiring z-stacks of randomly chosen cells with neurites. Two gels were imaged per condition for each experiment. Experiments were done in triplicate. For each condition, at least 50 neurons with neurites were imaged. Using the Simple Neurite Tracer plug-in for ImageJ software, neurites were traced and measured. A one-way ANOVA, followed by paired t-tests, were performed to determine significance between conditions. Researchers were blinded to the conditions during imaging and tracing.
Pluripotent murine P19 embryonal carcinoma cells were differentiated into neurons. These neurons were then homogeneously distributed into isotonic salt solutions composed of 0.8 wt % PA 1 mixed with 0.2 wt % 2-5 and gelled with 25 mM CaCl2 (FIG. 3a,b). Mixtures of 1 with 2-5 were used in biological experiments in order to form robust gel matrices capable of supporting cells in culture. After two days of culture, the cells were fixed and the neurites and nuclei were fluorescently labelled green and blue using β-III-tubulin immunostaining and Hoechst staining, respectively, then imaged by confocal microscopy (FIG. 14). Neurites were traced and measured, and average neurite lengths were calculated (FIG. 15).

Series [5] in a line: Small-angle X-ray scattering (SAXS) of PA nanostructures. The series is classed as physicochemical. Conditions: for Total SAXS Cross-section dimensions: diameter. The source says:
Small-angle X-ray scattering (SAXS) measurements were obtained using a Rigaku S-MAX 3000 High Brilliance SAXS System. Cu Ka radiation was generated by Osmic MicroMaxs, an integrated microfocus sealed tube generator (powered at 45 kV and 0.9 mA) with Osmict Confocal Max-Fluxs optics, 3 pinholes collimation. A 20×20 cm^2 2D position-sensitive wire detector (1024×1024 pixels) was positioned 150 cm behind the examined samples, resulting in a q-range of 0.07-2.8 nm^−1. The wave vector defined as, q=(4π/λ)sin(2θ/2), where 2y is the scattering angle and λ is wavelength of Cu Kα radiation (1.542 Å). A total of 10^6 or more counts were collected in order to obtain a high signal to noise ratio. Samples were measured for 3600 s, and then background subtracted from data collected using a capillary containing the isotonic salt solution. The 2D SAXS patterns were azimuthally averaged and the background subtracted using standard methods. Data analysis was based on fitting the scattering curve to an appropriate model by a least-squares method using software provided by NIST (NIST SANS analysis version 7.0 on IGOR) ^21 The table below lists the models used to fit the SAXS curves. The Total SAXS cross-sectional dimensions correspond to length and width for molecule 2, and diameter for 3-5.

The nature of series [6]: Solubility in physiologically relevant monovalent salt solution. Conditions: monovalent salt solution composed of 150 mM NaCl and 3 mM KCl. The series is classed as physicochemical.
Setting [7] is: (Core) Shell Cylinder SAXS model.

In the case of `CCCCCCCCCCCCCCCC(=O)N[C@H](C(=O)N[C@H](C(=O)N[C@@H](C)C(=O)N[C@@H](C)C(=O)N[C@@H](CCC(=O)O)C(=O)N[C@@H](CCC(=O)O)C(=O)N[C@@H](CCC(=O)O)C(=O)N[C@@H](CCC(=O)O)C(=O)NCC(=O)N[C@H](C(=O)N[C@@H](CCCCN)C(=O)N[C@H](C(=O)N[C@@H](C)C(=O)N[C@H](C(=O)O)C(C)C)C(C)C)[C@@H](C)CC)C(C)C)C(C)C` [PA 5, CH3(CH2)14C(O)-VVAAEEEEGIKVAV-OH] (Palmitoyl-VVAAEEEEGIKVAV-OH), in series [1], the “average diameter of cylindrical nanofibers” value was 10.8±1.5 nm. The “diameter of cylindrical structures” value in series [2] (cryoTEM, isotonic salt solution with 5 mM CaCl2 added) amounted to 9.9±1.1 nm. Besides, in series [2] (cryoTEM, without CaCl2), the “diameter of spherical micelles” value is on record as 5.3±1.1 nm. The “OBSERVED FIBER DIAMETER” value in series [2] (from TEM) was found to be 108 ± 15 Å. In addition, the “ASSEMBLED MORPHOLOGY” value in series [2] (observed morphologies from TEM) is recorded as “Cylindrical fiber”. Besides, the “increase in neurite length” value in series [3] was 57±14%. Besides, the “peptide secondary structure from CD spectrum” value in the series “Circular dichroism (CD)” (150 mM NaCl, 3 mM KCl with 5 mM CaCl2 added) is “presence of β-sheet structure”; in the series “Circular dichroism (CD)” (1 wt % in 150 mM NaCl, 3 mM KCl) it was “random coil peptide structure”. The “hydrodynamic radius of spherical micelles” value in “Dynamic light scattering” is given as 8.6 nm. Also, the “promotion of neurite outgrowth (in words)” value in series [4] is recorded as “promoted neurite outgrowth”; in series [4] (listed as SEQ ID NO. 7), “promote neurite outgrowth”. Further, in series [4] (gels of 0.8 wt % PA 1 mixed with 0.2 wt % of the PA, gelled with 25 mM CaCl2, 2 days culture), the “increase in neurite outgrowth” value turned out to be 88±13%. Moreover, the “Core Diameter” value in series [5] (setting [7]) was determined as 1.2 nm; in series [5] ((Core) Shell Sphere SAXS model), 1.46 nm. For the same molecule, the “Shell Thickness” value in series [5] (setting [7]) turned out to be 2.0 ± 0.6 nm; in series [5] ((Core) Shell Sphere SAXS model), 1.4 ± 0.6 nm. The “Total SAXS Cross-section dimensions” value stood at 6.4 ± 1.8 nm in series [5] (setting [7]); 5.9±1.2 nm in series [5] ((Core) Shell Sphere SAXS model); 5.9±1.2 nm in series [5] ((Core) Shell Sphere SAXS model, listed as 5). Also, the solubility result in series [6] was “soluble”.

(Values after patent US8748569B2, “Peptide amphiphiles and methods to electrostatically control bioactivity of the ikvav peptide epitope” (Northwestern University, priority 2011, dated 2014).)
